Legend:
[1] = tested on: downy brome; test: Test C preemergence/postemergence greenhouse plant response rating 0 to 100; type: in vivo, Bromus tectorum; details: POSTEMERGENCE; for Plant response rating Downy Brome: 0 to 100 scale
Excerpt: (§1) The compounds evaluated in this test were formulated in a non-phytoxic solvent and applied to the soil surface before plant seedlings emerged (preemergence application), to water that covered the soil surface (flood application), and to plants that were in the one-to-four leaf stage (postemergence application). A sandy loam soil was used for the preemergence and postemergence tests, while a silt loam soil was used in the flood test. Water depth was approximately 2.5 cm for the flood test and was maintained at this level for the duration of the test. Plant species in the preemergence and postemergence tests consisted of barley (Hordeum vulgare), bedstraw (Galium aparine), blackgrass (Alopecurus myosuroides), chickweed (Stellaria media), corn (Zea mays), cotton (Gossypium hirsutum), crabgrass (Digitaria sanguinalis), downy brome (Bromus tectorum), giant foxtail (Setaria faberii), lambsquarters (Chenopodium album), morningglory (Ipomoea hederacea), pigweed ([…]), rape (Brassica napus), ryegrass (Lolium multiflorum), sorghum (Sorghum bicolor), soybean (Glycine max), speedwell (Veronica persica), sugar beet (Beta vulgaris), velvetleaf (Abutilon theophrasti), wheat (Triticum aestivum), wild buckwheat (Polygonum convolvulus), and wild oat (Avena fatua). All plant species were planted one day before application of the compound for the preemergence portion-of this test. Plantings of these species were adjusted to produce plants of appropriate size for the post-emergence portion of the test. […] All plant species were grown using normal greenhouse practices. Visual evaluations of injury expressed on treated plants, when compared to untreated controls, were recorded approximately fourteen to twenty one days after application of the test compound. […] A dash (-) response means no test result.

[2] = tested on: wild buckwheat; test: Test B preemergence/postemergence greenhouse plant response rating 0 to 10; type: in vivo, Polygonum convolvulus; details: 0 to 10 scale
Procedure, shortened: (§2)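 Both application timings were run together: seeds got compound preemergence, and established seedlings (two to eighteen cm) got it postemergence. Non-phytotoxic solvent carried the chemical. Ratings are visual, versus controls, at twelve to sixteen days.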

[3] = tested on: rice; test: as above; type: in vivo, Oryza sativa; details: 0 to 10 scale
Procedure, shortened: as §2

[4] = tested on: wild buckwheat; test: Test C preemergence/postemergence greenhouse plant response rating 0 to 100; type: in vivo, Polygonum convolvulus; details: POSTEMERGENCE; for Plant response rating, Wild buckwheat: 0 to 100 scale
Excerpt: as §1

[5] = tested on: wild oat; test: Test B preemergence/postemergence greenhouse plant response rating 0 to 10; type: in vivo, Avena fatua; details: 0 to 10 scale
Procedure, shortened: as §2

[6] = tested on: soybean; test: as above; type: in vivo, Glycine max; details: 0 to 10 scale
Procedure, shortened: as §2

[7] = tested on: blackgrass; test: Test C preemergence/postemergence greenhouse plant response rating 0 to 100; type: in vivo, Alopecurus myosuroides; details: POSTEMERGENCE; for Plant response rating, Blackgrass: 0 to 100 scale
Excerpt: as §1

[8] = tested on: lambsquarters; test: Test B preemergence/postemergence greenhouse plant response rating 0 to 10; type: in vivo, Chenopodium album; details: 0 to 10 scale
Procedure, shortened: as §2

[9] = tested on: wheat; test: as above; type: in vivo, Triticum aestivum; details: 0 to 10 scale
Procedure, shortened: as §2

[10] = tested on: barnyardgrass; test: Test C flood test plant response rating 0 to 100; type: in vivo, Echinochloa crus-galli; details: for Plant response rating (0 to 100), Barnyardgrass: under POSTEMERGENCE head (flood test species); for Plant response rating, Barnyardgrass: flood test species listed under POSTEMERGENCE, 0 to 100 scale
Excerpt: as §1

[11] = tested on: sorghum; test: Test C preemergence/postemergence greenhouse plant response rating 0 to 100; type: in vivo, Sorghum bicolor; details: POSTEMERGENCE; for Plant response rating, Sorghum: 0 to 100 scale
Excerpt: as §1

[12] = tested on: sugar beet; test: as above; type: in vivo, Beta vulgaris; details: POSTEMERGENCE; for Plant response rating, Sugar beet: 0 to 100 scale
Excerpt: as §1

## C#CC(C)Oc1cc(-c2nn3c(c2Cl)CCCC3)c(F)cc1Cl (centres unmarked) [Compound 36]
[1]; 62 g/ha
  Plant response rating Downy Brome: 40
[1]; 125 g/ha
  Plant response rating Downy Brome: 50
[1]; Rate 16 g/ha
  Plant response rating (0 to 100), Downy Brome: 20
[1]; Rate 31 g/ha
  Plant response rating (0 to 100), Downy Brome: 30
[2]; POSTEMERGENCE, Rate 50 g/ha
  Plant response rating, Wild buckwheat: 10
[2]; PREEMERGENCE, Rate 50 g/ha
  Plant response rating, Wild buckwheat: 10
[2]; Rate 200 g/ha, POSTEMERGENCE
  Plant response rating, Wild buckwheat: 10
[2]; Rate 200 g/ha, PREEMERGENCE
  Plant response rating, Wild buckwheat: 10
[3]; POSTEMERGENCE, Rate 50 g/ha
  Plant response rating, Rice: 6
[3]; PREEMERGENCE, Rate 50 g/ha
  Plant response rating, Rice: 0
[3]; Rate 200 g/ha, POSTEMERGENCE
  Plant response rating, Rice: 6
[3]; Rate 200 g/ha, PREEMERGENCE
  Plant response rating, Rice: 4
[4]; 62 g/ha
  Plant response rating, Wild buckwheat: 100
[4]; 125 g/ha
  Plant response rating, Wild buckwheat: 100
[4]; Rate 16 g/ha
  Plant response rating (0 to 100), Wild buckwheat: 70
[4]; Rate 31 g/ha
  Plant response rating (0 to 100), Wild buckwheat: 70
[5]; POSTEMERGENCE, Rate 50 g/ha
  Plant response rating, Wild oat: 5
[5]; PREEMERGENCE, Rate 50 g/ha
  Plant response rating, Wild oat: 3
[5]; Rate 200 g/ha, POSTEMERGENCE
  Plant response rating, Wild oat: 6
[6]; POSTEMERGENCE, Rate 50 g/ha
  Plant response rating, Soybean: 9
[6]; PREEMERGENCE, Rate 50 g/ha
  Plant response rating, Soybean: 0
[6]; Rate 200 g/ha, POSTEMERGENCE
  Plant response rating, Soybean: 9
[6]; Rate 200 g/ha, PREEMERGENCE
  Plant response rating, Soybean: 2
[7]; 62 g/ha
  Plant response rating, Blackgrass: 50
[7]; 125 g/ha
  Plant response rating, Blackgrass: 70
[7]; Rate 16 g/ha
  Plant response rating (0 to 100), Blackgrass: 30
[7]; Rate 31 g/ha
  Plant response rating (0 to 100), Blackgrass: 40
[8]; POSTEMERGENCE, Rate 50 g/ha
  Plant response rating, Lambsquarter: 10
[8]; PREEMERGENCE, Rate 50 g/ha
  Plant response rating, Lambsquarter: 10
[8]; Rate 200 g/ha, POSTEMERGENCE
  Plant response rating, Lambsquarter: 10
[8]; Rate 200 g/ha, PREEMERGENCE
  Plant response rating, Lambsquarter: 10
[9]; POSTEMERGENCE, Rate 50 g/ha
  Plant response rating, Wheat: 5
[9]; PREEMERGENCE, Rate 50 g/ha
  Plant response rating, Wheat: 5
[9]; Rate 200 g/ha, POSTEMERGENCE
  Plant response rating, Wheat: 6
[9]; Rate 200 g/ha, PREEMERGENCE
  Plant response rating, Wheat: 5
[10]; Rate 16 g/ha
  Plant response rating (0 to 100), Barnyardgrass: 100
[10]; Rate 31 g/ha
  Plant response rating (0 to 100), Barnyardgrass: 100
[10]; 62 g/ha
  Plant response rating, Barnyardgrass: 100
[10]; 125 g/ha
  Plant response rating, Barnyardgrass: 100
[11]; 62 g/ha
  Plant response rating, Sorghum: 60
[11]; 125 g/ha
  Plant response rating, Sorghum: 70
[11]; Rate 16 g/ha
  Plant response rating (0 to 100), Sorghum: 40
[11]; Rate 31 g/ha
  Plant response rating (0 to 100), Sorghum: 50
[12]; 62 g/ha
  Plant response rating, Sugar beet: 100
[12]; 125 g/ha
  Plant response rating, Sugar beet: 100
[12]; Rate 16 g/ha
  Plant response rating (0 to 100), Sugar beet: 95
[12]; Rate 31 g/ha
  Plant response rating (0 to 100), Sugar beet: 100

Reference: patent US6358885B1, “Substituted phenylheterocyclic herbicides” (Mississippi State University, priority 1992, dated 2002)
